Experiments:
[1] = tested on: rats with L5 spinal nerve ligation (SNL model); test: Spinal nerve ligation (L5) neuropathic pain model, von Frey filaments, dose range (Example 5); format: in vivo, rat; details: gabapentin 100 mg/kg p.o.
Excerpt: (§1) The spinal nerve ligation (SNL) model of neuropathic pain was produced in all rats as described by Kim and Chung (Pain, 50, 355-363, 1992). Briefly, under gaseous anesthesia using halothane (3% for induction and 1.5% for maintenance) in oxygen, the left L5 spinal nerve was exposed by removing the paraspinal muscles and the transverse process of the L6 vertebra. The very proximal portion of the L5 spinal nerve was tightly ligated with 6-0 silk suture. The wounds were closed and anesthesia was discontinued. Rats were kept on a heated blanket until they had completely recovered from anesthesia.
Behavioral tests were conducted in a non-blind fashion. The foot withdrawal threshold to mechanical stimuli applied to the paw (mechanical threshold) was measured, as an indicator of mechanical sensitivity of the affected paw. The foot withdrawal threshold was measured using von Frey filaments. It is generally thought that von Frey filaments are more sensitive than electronic von Frey probes for measuring tactile stimulation. The mechanical thresholds were measured by using the “up-and-down” method (Chaplan et al., J. Neurosci. Methods 53(1):55-63, 1994), following the procedures described in previous studies (Park et al., Pain 87(2):171-179, 2000; Xie et al., J. Pain 2(5):270-278, 2001; Baik et al., J. Pain 4:212-221, 2003). In brief, rats were placed in a transparent plastic box on a metal wire mesh floor. To determine the threshold stiffness required for 50% paw withdrawal, a series of eight von Frey filaments with approximately equal logarithmic incremental (0.22) von Frey values (3.65, 3.87, 4.10, 4.31, 4.52, 4.74, 4.92, and 5.16) were used. Von Frey (VF) values are logarithmically related to gram (g) values (VF=log (10,000×g)). The chosen von Frey values are therefore equivalent to 0.45, 0.74, 1.26, 2.04, 3.31, 5.50, 8.32, and 14.45 in gram value, respectively. Starting with filament 4.31, von Frey filaments were applied perpendicularly to the ventral surface of the proximal part of the third or fourth toe for 2-3 seconds. Whenever a positive response to a stimulus occurred (paw withdrawal), the next smaller von Frey hair was applied. Whenever a negative response occurred, the next larger one was applied. The test was continued until the response of six stimuli after the first change in response had been obtained or the test had reached either end of the spectrum of the von Frey set.
The 50% threshold value was then calculated using Dixon's formula (Dixon, Ann. Rev. Phar. Tox. 20:441-462, 1980): 50% threshold=X+kd, where X is the value of the final von Frey hair used (in log units), k is the tabular value for the pattern of positive/negative responses, and d is the mean difference between stimuli in log units (0.22). In the cases where continuous positive or negative responses were observed all the way out to the end of the stimulus spectrum, values of 3.54 or 5.27 were assigned, respectively, by assuming a value of (−/+) 0.5 for k in these cases (Dixon, supra, 1980). Outcome of behavioral data were expressed as von Frey values (maximum range from 3.54 to 5.27) and plotted in a linear scale.
Data were expressed as the mean±standard errors of mean (SEM). Differences in mechanical thresholds at various times after injections were tested using two-way (time and group factors) analysis of variance (ANOVA), followed by the Duncan's post-hoc test for multiple comparisons. Statistical analyses were done using the SAS® software program (SAS Institute Inc, Cary, N.C.). Two-tailed p-values<0.05 were considered to be significant.
This experiment was conducted on 8 rats in a Latin-square design examining a dose response of OPC-14523. Gabapentin was prepared at 10 mg/ml in 0.5% tragacanth and administered at 100 mg/kg p.o. Behavioral tests were conducted in a blind fashion twice (1 day and 1 hour) before as well as 1 and 4 days after the neuropathic surgery. […] These 8 rats were randomly divided into 6 groups of 1-2 rats. […]

[2] = tested on: rats with L5 spinal nerve ligation (SNL model); test: Spinal nerve ligation (L5) neuropathic pain model, mechanical threshold with von Frey filaments (Example 4); format: in vivo, rat; details: gabapentin 50 mg/kg i.p.
Excerpt: A total of 18 Sprague-Dawley (CD sub-strain) young adult (weight: 150-175 g) male rats were purchased from Harlan Sprague Dawley Company (Indianapolis, Ind.), Alabama colony. The rats were kept three per cage and had free access to food and water. Animals were kept in a room with a reversed light-dark cycle (light: 8:00 PM-8:00 AM) for 1 week before experimental manipulations. Ten rats were allocated to the present study. Eight rats were allocated to the study of Example 5, below.
as §1
OPC-14523 was dispersed in 0.5% tragacanth in distilled water at 20 mg/ml. It was administered as a oral injection in a dose of 100 mg/kg body weight. Gabapentin was prepared at 10 mg/ml in saline and was administered at 50 mg/kg body weight i.p. Gabapentin is a drug that was originally developed as an anticonvulsant but is now widely used as an analgesic for neuropathic pain (Abdi et al., Anesthesia & Analgesia 87:1360-1366 (1998)).
Ten rats were utilized in a Latin-square-design study comparing the activity of OPC-14523 and other compounds against neuropathic pain. Behavioral tests were conducted twice (1 day and 1 hour) before, as well as 1 and 4 days after, the neuropathic surgery. […] The ten rats were randomly divided into five groups of two rats each. […]
This procedure was repeated five times. […] The result was that all ten animals received each of the indicated five compounds in random order and then had mechanical thresholds determined at the indicated times.
Behavioral tests were conducted in a non-blind fashion. The foot withdrawal threshold to mechanical stimuli applied to the paw (mechanical threshold) was measured, as an indicator of mechanical sensitivity of the affected paw. The foot withdrawal threshold was measured using von Frey filaments. […] The mechanical thresholds were measured by using the “up-and-down” method (Chaplan et al., J. Neurosci. Methods 53(1):55-63, 1994), following the procedures described in previous studies (Park et al., Pain 87(2):171-179, 2000; Xie et al., J. Pain 2(5):270-278, 2001; Baik et al., J. Pain 4:212-221, 2003). […]

Compound: NCC1(CC(=O)O)CCCCC1 [Gabapentin, gabapentin, reference compound]
- effect on mechanical threshold of the lesioned paw for foot withdrawals [1]: significant increase
- level of mechanical threshold increase relative to threshold prior to ligation [2]: about half of the mechanical threshold observed prior to the ligation
- effect on mechanical threshold of the lesioned paw for foot withdrawals ([2]; 0.5-6 hours): significantly increased

From patent publication US20070142396A1, “Treatment of pain with 1-[3-[4-(3-chlorophenyl)-1-piperazinyl]propyl]-5-methoxy-3,4-dihydro-2(1H)-quinolone or salt thereof” (Vela Pharmaceuticals, Inc., priority 2005, published 2007)
